According to patent publication US11147272B2, “Pyridone compounds and agricultural and horticultural fungicides comprising the same as active ingredients” (MITSUI CHEMICALS AGRO, INC., priority 2017, dated 2021):

Columns and labels:
Magnaporthe grisea = assay: whole plant or invertebrate; assay type: in vivo; details: 250 ppm drug solution sprayed on test plant
Alternaia brassicicola = assay: Test Example C: Alternaria sooty spot on cabbage; assay type: in vivo; details: 250 ppm drug solution sprayed on test plant
Text: Seeds of a test plant (cabbage variety: Shikidori) were planted and cultivated until the cotyledons extended.
<Control Value> Control value=100{1−(n/3)}

Puccinia recondita = assay: Test Example E: Brown rust on wheat; assay type: in vivo; details: 250 ppm drug solution sprayed on test plant
Phytophthora infestans = assay: whole plant or invertebrate; assay type: in vivo; details: 250 ppm drug solution sprayed on test plant
Botrytis cinerea = assay: Test Example B: Gray mold on tomato; details: 250 ppm drug solution sprayed on test plant
Plasmopara viticola = assay: Test Example G: Downy mildew on vine; details: 250 ppm drug solution sprayed (2.5 ml/pot), grape Neomuscat, 7 to 10 days after inoculation
[1] = tested on: Colletotrichum orbiculare; assay: Test Example H: Anthracnose on cucumber; details: 250 ppm drug solution sprayed (2.5 ml/pot), cucumber Sagami Hanjiro, 6 to 10 days after inoculation
[2] = tested on: Blumeria graminis f. sp. hordei; assay: Test Example D: Powdery mildew on barley; details: 250 ppm drug solution sprayed on test plant

| SMILES | Test A control value (Magnaporthe grisea) | Test C control value (Alternaia brassicicola) | Test E control value (Puccinia recondita) | Test F control value (Phytophthora infestans) | Test B control value (Botrytis cinerea) | Test G control value (Plasmopara viticola) | Test H control value [1] | Test D control value [2] |
| --- | --- | --- | --- | --- | --- | --- | --- | --- |
| COc1cc(F)c(-c2c(C(C)(O)C(C)C)cc(Cl)c(=O)n2C)c(F)c1 (stereo not shown) [compound 487] | H (more than 50% control value) | H (more than 50% control value) | H (more than 50% control value) | H (more than 50% control value) | H (more than 50% control value) | H (more than 50% control value) | H (more than 50% control value) | H (more than 50% control value) |
| COc1cc(F)c(-c2c(C(C)(OC)C(C)C)cc(Cl)c(=O)n2C)c(F)c1 (stereo not shown) [compound 488] | H (more than 50% control value) | H (more than 50% control value) | H (more than 50% control value) | L (50% or less control value) | H (more than 50% control value) | L (50% or less control value) | H (more than 50% control value) | L (50% or less control value) |
| CCOC(C)(c1cc(Cl)c(=O)n(C)c1-c1c(F)cc(OC)cc1F)C(C)C (stereo not shown) [compound 489] | H (more than 50% control value) | H (more than 50% control value) | H (more than 50% control value) | L (50% or less control value) | H (more than 50% control value) | L (50% or less control value) | H (more than 50% control value) | H (more than 50% control value) |
| CCC(O)c1cc(Cl)c(=O)n(C)c1-c1c(F)cc(F)cc1F (stereo not shown) [compound 490] | L (50% or less control value) | L (50% or less control value) | H (more than 50% control value) | L (50% or less control value) | L (50% or less control value) | H (more than 50% control value) | L (50% or less control value) | L (50% or less control value) |
| CCCc1ccc(=O)n(CC(F)F)c1-c1c(F)cccc1F [compound 491] | L (50% or less control value) | H (more than 50% control value) | H (more than 50% control value) | L (50% or less control value) | H (more than 50% control value) | L (50% or less control value) | L (50% or less control value) | H (more than 50% control value) |
| CCCc1cc(Cl)c(=O)n(CC(F)F)c1-c1c(F)cccc1F [compound 492] | H (more than 50% control value) | H (more than 50% control value) | H (more than 50% control value) | L (50% or less control value) | H (more than 50% control value) | H (more than 50% control value) | H (more than 50% control value) | H (more than 50% control value) |
| CCCc1cc(Br)c(=O)n(CC(F)F)c1-c1c(F)cccc1F [compound 493] | H (more than 50% control value) | H (more than 50% control value) | H (more than 50% control value) | L (50% or less control value) | H (more than 50% control value) | H (more than 50% control value) | H (more than 50% control value) | H (more than 50% control value) |
| CCCc1cc(I)c(=O)n(CC(F)F)c1-c1c(F)cccc1F [compound 494] | H (more than 50% control value) | H (more than 50% control value) | H (more than 50% control value) | L (50% or less control value) | H (more than 50% control value) | H (more than 50% control value) | H (more than 50% control value) | H (more than 50% control value) |
| CCC(=O)c1cc(Cl)c(=O)n(C)c1-c1c(F)cc(F)cc1F [compound 495] | L (50% or less control value) | H (more than 50% control value) | H (more than 50% control value) | L (50% or less control value) | H (more than 50% control value) | L (50% or less control value) | L (50% or less control value) | H (more than 50% control value) |
| COC(c1cc(Cl)c(=O)n(C)c1-c1c(F)cc(F)cc1F)C(C)C (stereo not shown) [compound 496] | H (more than 50% control value) | H (more than 50% control value) | H (more than 50% control value) | L (50% or less control value) | H (more than 50% control value) | H (more than 50% control value) | H (more than 50% control value) | H (more than 50% control value) |
| CCOC(c1cc(Cl)c(=O)n(C)c1-c1c(F)cc(F)cc1F)C(C)C (stereo not shown) [compound 497] | H (more than 50% control value) | H (more than 50% control value) | H (more than 50% control value) | L (50% or less control value) | H (more than 50% control value) | H (more than 50% control value) | H (more than 50% control value) | H (more than 50% control value) |
| COc1cc(F)c(-c2c(C(OC)C(C)C)cc(Cl)c(=O)n2C)c(F)c1 (stereo not shown) [compound 498] | H (more than 50% control value) | H (more than 50% control value) | H (more than 50% control value) | L (50% or less control value) | H (more than 50% control value) | L (50% or less control value) | H (more than 50% control value) | L (50% or less control value) |
| CCOC(c1cc(Cl)c(=O)n(C)c1-c1c(F)cc(OC)cc1F)C(C)C (stereo not shown) [compound 499] | H (more than 50% control value) | H (more than 50% control value) | H (more than 50% control value) | L (50% or less control value) | H (more than 50% control value) | H (more than 50% control value) | H (more than 50% control value) | H (more than 50% control value) |
| CCn1c(-c2c(F)cc(OC)cc2F)c(C(C)(O)CC)cc(Br)c1=O (stereo not shown) [compound 500] | H (more than 50% control value) | H (more than 50% control value) | H (more than 50% control value) | L (50% or less control value) | H (more than 50% control value) | H (more than 50% control value) | H (more than 50% control value) | L (50% or less control value) |
| CCn1c(-c2c(F)cc(F)cc2F)c(C(OC)C(C)C)cc(Br)c1=O (stereo not shown) [compound 501] | H (more than 50% control value) | H (more than 50% control value) | H (more than 50% control value) | L (50% or less control value) | H (more than 50% control value) | L (50% or less control value) | H (more than 50% control value) | H (more than 50% control value) |
| CCC(OC)c1cc(Cl)c(=O)n(C)c1-c1c(F)cc(F)cc1F (stereo not shown) [compound 502] | H (more than 50% control value) | H (more than 50% control value) | H (more than 50% control value) | L (50% or less control value) | H (more than 50% control value) | H (more than 50% control value) | H (more than 50% control value) | H (more than 50% control value) |
| CCn1c(-c2c(F)cc(OC)cc2F)c(C(OC)C(C)C)cc(Br)c1=O (stereo not shown) [compound 503] | H (more than 50% control value) | H (more than 50% control value) | H (more than 50% control value) | L (50% or less control value) | H (more than 50% control value) | H (more than 50% control value) | H (more than 50% control value) | H (more than 50% control value) |
